From patent US8551963B2, “Imidazolothiazole compounds and methods of use thereof” (Ambit Biosciences Corporation, priority 2008, dated 2013)

Test system: RS4;11 cells
Test: RS4;11 cellular proliferation assay (Cell Titer Blue)
Assay type: cell-based
Settings: Homo sapiens, RS4-11, 48 h, read-out: EC50 (50% inhibition of cellular proliferation)
Experimental: Cells were cultured overnight in low serum media with 0.5% FBS. The following day, cells were seeded on to a 96-well plate at 40,000 cells per well at a volume of 100 μL per well.
CTB reagent was thawed in a 37° C. water bath. 40 μL of CTB reagent was added to the plate containing the cells, and the cells were incubated with the reagent at 37° C. in 5% CO2 for 3 hours. The absorbance was measured at 560 nm (excitation)/590 nm (emission) using Spectramax Plus 384 Absorbance Microplate Reader by Molecular Devices.

CC(C)(CO)c1cc(NC(=O)Nc2ccc(-c3cn4c(n3)sc3cc(OCCN5CCOCC5)ccc34)cc2)no1 [Compound I-1, 1-[5-(2-hydroxy-1,1-dimethyl-ethyl)-isoxazol-3-yl]-3-{4-[7-(2-morpholin-4-yl-ethoxy)-benzo[d]imidazo[2,1-b]thiazol-2-yl]-phenyl}-urea]
EC50: 2 nM
